Measured values published in the OligoGym collection.
Several values for one entry are separate records, joined by “and”; a condition that tells them apart may be missing. Identical values can stand only once. After the bases stand the sugars from the 5' end (letter, count) and the backbone: PS all phosphorothioate, else s phosphorothioate and o phosphodiester by linkage. Methylation of C is not given here. k = constrained ethyl (cEt); d = 2'-deoxy (DNA)

Molecular target: MALAT1
Settings: ASO, A431, 0.005 µM

Row | Sequence | target mRNA inhibition
1 | ATTCACCAAGGAGCTG (sugars k3 d10 k3, PS) | 39%
2 | ATTCTAGACAGACCTA (sugars k3 d10 k3, PS) | 33%
3 | ATTGGTAGCTTTCATT (sugars k3 d10 k3, PS) | 70% and 83%
4 | ATTGGTTACCAATAAT (sugars k3 d10 k3, PS) | 4%
5 | ATTGTAGTTAATGTCA (sugars k3 d10 k3, PS) | 50%
6 | ATTTATTTCGGCTTCT (sugars k3 d10 k3, PS) | 71% and 90%
7 | ATTTGAACCCCGTCCT (sugars k3 d10 k3, PS) | 31%
8 | ATTTTAAAAAGGCTCG (sugars k3 d10 k3, PS) | 27%
9 | CAAAAAGTAGTTCTTC (sugars k3 d10 k3, PS) | -18%
10 | CAAAAGCCCTCTCAGC (sugars k3 d10 k3, PS) | -14%
11 | CAAAATCCTGAATGGC (sugars k3 d10 k3, PS) | 10%
12 | CAAAATGGCGGACTTT (sugars k3 d10 k3, PS) | 17%
13 | CAAACTAAGCTACTAT (sugars k3 d10 k3, PS) | 15%
14 | CAAACTGCTTACAGAT (sugars k3 d10 k3, PS) | 31%
15 | CAAATTGCACTCGCTC (sugars k3 d10 k3, PS) | 34%
16 | CAACAAGTAAGCCCCA (sugars k3 d10 k3, PS) | 0%
17 | CAACAATCACTACTCC (sugars k3 d10 k3, PS) | 16%
18 | CAACATATTGCCGACC (sugars k3 d10 k3, PS) | -26%
19 | CAACTAAGCGAATGGC (sugars k3 d10 k3, PS) | 24%
20 | CAACTGGGAATACTCT (sugars k3 d10 k3, PS) | 20%
21 | CAACTTGGAAGTTGAT (sugars k3 d10 k3, PS) | 10%
22 | CAAGATTGCCCCAACA (sugars k3 d10 k3, PS) | 12%
23 | CAAGCATTCCTTCGGA (sugars k3 d10 k3, PS) | 25%

Row | Sequence | target mRNA inhibition
24 | CAAGGCACTGATCACT (sugars k3 d10 k3, PS) | 48%
25 | CAAGTTAAACTTATCT (sugars k3 d10 k3, PS) | 16%
26 | CAATCAAGTCAAGCTC (sugars k3 d10 k3, PS) | 3%
27 | CAATGCACTAAAGATC (sugars k3 d10 k3, PS) | 10%
28 | CAATGCCTACCGCACA (sugars k3 d10 k3, PS) | 16%
29 | CAATTTACATCACAAC (sugars k3 d10 k3, PS) | 45%
30 | CACAAAACCCCCGGAA (sugars k3 d10 k3, PS) | 19%
31 | CACAAGGATCCAAGCT (sugars k3 d10 k3, PS) | 18%
32 | CACCAAAGACCTCGAC (sugars k3 d10 k3, PS) | 18%
33 | CACCAAATTGCACTCG (sugars k3 d10 k3, PS) | 54% and 73%
34 | CACCACCTGGAATGGC (sugars k3 d10 k3, PS) | 8%
35 | CACCCGGAAATCGGCC (sugars k3 d10 k3, PS) | -1%
36 | CACGGGCTGTCTGCTT (sugars k3 d10 k3, PS) | 18%
37 | CACTGATCACTTTAGA (sugars k3 d10 k3, PS) | 41%
38 | CACTGCCAACTAATTG (sugars k3 d10 k3, PS) | 39%
39 | CACTGGTACACCCAGT (sugars k3 d10 k3, PS) | 15%
40 | CAGAAAAAGCTTGTTC (sugars k3 d10 k3, PS) | 37%
41 | CAGATGCAAGTTAAAC (sugars k3 d10 k3, PS) | 40%
42 | CAGCGGTACACTCCTT (sugars k3 d10 k3, PS) | 36%
43 | CAGCTCGGGCGAGGCG (sugars k3 d10 k3, PS) | 13%
44 | CAGGCTGGTTATGACT (sugars k3 d10 k3, PS) | 26%
45 | CAGGGCTTTACTTTCC (sugars k3 d10 k3, PS) | 2%
46 | CAGTAGGCCAGACCAA (sugars k3 d10 k3, PS) | 14%

Row | Sequence | target mRNA inhibition
47 | CAGTTACACATCCAAA (sugars k3 d10 k3, PS) | 45%
48 | CAGTTACTCCAGCATA (sugars k3 d10 k3, PS) | 24%
49 | CATAAGTAAGTTCCAG (sugars k3 d10 k3, PS) | 49%
50 | CATACAAACTGCTTAC (sugars k3 d10 k3, PS) | 29%
51 | CATACCTTAACATCTT (sugars k3 d10 k3, PS) | 32%
52 | CATATTTTAAACGGGT (sugars k3 d10 k3, PS) | -16%
53 | CATATTTTGCCCCCAC (sugars k3 d10 k3, PS) | 15%
54 | CATCACCGGAATTCGA (sugars k3 d10 k3, PS) | 2%
55 | CATCAGTAGTAAGAAT (sugars k3 d10 k3, PS) | 14%
56 | CATCCAAACTCTACAT (sugars k3 d10 k3, PS) | 23%
57 | CATGGATTTCAAGGTC (sugars k3 d10 k3, PS) | 11%
58 | CATTACAGTTCTTGAA (sugars k3 d10 k3, PS) | 41%
59 | CATTACGCAACTGAGC (sugars k3 d10 k3, PS) | -1%
60 | CATTCAAGCTGAACTA (sugars k3 d10 k3, PS) | 39%
61 | CATTCCTTCGGATGCT (sugars k3 d10 k3, PS) | 38%
62 | CATTGCCTCTTCATTG (sugars k3 d10 k3, PS) | 36%
63 | CATTGGCACACAGCAC (sugars k3 d10 k3, PS) | 21%
64 | CATTGGGAGTTACTTG (sugars k3 d10 k3, PS) | 32%
65 | CCAAAAGCCTTCTGCC (sugars k3 d10 k3, PS) | 34%
66 | CCAACCGTAACAGGCC (sugars k3 d10 k3, PS) | 27%
67 | CCAAGATTGCCCCAAC (sugars k3 d10 k3, PS) | 14%
68 | CCACCCTCTAAGAGAC (sugars k3 d10 k3, PS) | -17%
69 | CCACTCTTGGAAAACG (sugars k3 d10 k3, PS) | 23%

Row | Sequence | target mRNA inhibition
70 | CCACTTGATCCCAACT (sugars k3 d10 k3, PS) | 47%
71 | CCCACAGGAACAAGTC (sugars k3 d10 k3, PS) | 14%
72 | CCCACGGCCCGCACGG (sugars k3 d10 k3, PS) | 14%
73 | CCCATAACTGATCTGA (sugars k3 d10 k3, PS) | 42%
74 | CCCATTATATTAGAAA (sugars k3 d10 k3, PS) | 10%
75 | CCCCAAAAGCTCTATA (sugars k3 d10 k3, PS) | 8%
76 | CCCCAAGACCAAACTG (sugars k3 d10 k3, PS) | -9%
77 | CCCCAATGGAGGTATG (sugars k3 d10 k3, PS) | 37%
78 | CCCCACGCCAACACAG (sugars k3 d10 k3, PS) | 10%
79 | CCCCAGTTCAATACTT (sugars k3 d10 k3, PS) | 25%
80 | CCCCAGTTGCCGCCAG (sugars k3 d10 k3, PS) | -18%
81 | CCCCATTATATTAGAA (sugars k3 d10 k3, PS) | -6%
82 | CCCCCAAGATTGCCCC (sugars k3 d10 k3, PS) | 11%
83 | CCCCCCACGGCCCGCA (sugars k3 d10 k3, PS) | 26%
84 | CCCCGTCCTGGAAACC (sugars k3 d10 k3, PS) | 21%
85 | CCCGCACGGAAATTTT (sugars k3 d10 k3, PS) | 17%
86 | CCCGGAACTTTTAAAA (sugars k3 d10 k3, PS) | -7%
87 | CCCTAACATGCAATAC (sugars k3 d10 k3, PS) | 14%
88 | CCCTCTAAGAGACATT (sugars k3 d10 k3, PS) | 32%
89 | CCCTTCAAGCACCGCT (sugars k3 d10 k3, PS) | 28%
90 | CCCTTCTAGCTTCAAG (sugars k3 d10 k3, PS) | 38%
91 | CCCTTCTATTGGTATT (sugars k3 d10 k3, PS) | 7%
92 | CCGCAGGGATTTGAAC (sugars k3 d10 k3, PS) | 2%

Row | Sequence | target mRNA inhibition
93 | CCGCTTGAGATTTGGG (sugars k3 d10 k3, PS) | 28%
94 | CCGGAATTCGATCACC (sugars k3 d10 k3, PS) | 9%
95 | CCGGAGCAGGAAGAAA (sugars k3 d10 k3, PS) | 23%
96 | CCGTCCTGGAAACCAG (sugars k3 d10 k3, PS) | 16%
97 | CCTACAACACCCGGAA (sugars k3 d10 k3, PS) | 0%
98 | CCTACCGCACAGCTCG (sugars k3 d10 k3, PS) | 3%
99 | CCTACTGAAGAGCATT (sugars k3 d10 k3, PS) | 25%
100 | CCTACTTTAAGCCTTC (sugars k3 d10 k3, PS) | 35%
101 | CCTATCTTCTCCAGTC (sugars k3 d10 k3, PS) | -13%
102 | CCTCAATCCACTTGAT (sugars k3 d10 k3, PS) | -2%
103 | CCTCACGGATTTTTAC (sugars k3 d10 k3, PS) | -1%
104 | CCTCAGTTACACATCC (sugars k3 d10 k3, PS) | 49%
105 | CCTCCTCCGTGTGGTT (sugars k3 d10 k3, PS) | 32%
106 | CCTGATCTGGTCCATT (sugars k3 d10 k3, PS) | 44%
107 | CCTGCTACCTTCATCA (sugars k3 d10 k3, PS) | 22%
108 | CCTTAGTTGGCATCAA (sugars k3 d10 k3, PS) | 82% and 63%
109 | CCTTCCGCCGCCTCTT (sugars k3 d10 k3, PS) | 3%
110 | CCTTCGGATGCTTCAC (sugars k3 d10 k3, PS) | 58% and 78%
111 | CCTTCGGTTTAATCTC (sugars k3 d10 k3, PS) | 61% and 58%
112 | CCTTTATCACTCAGCT (sugars k3 d10 k3, PS) | 54%
113 | CCTTTCATAGAGCCTT (sugars k3 d10 k3, PS) | 69% and 90%
114 | CCTTTGTGAGGGAGGC (sugars k3 d10 k3, PS) | -5%
